Assay results taken from US6878742B2, “Heterocyclic sulfonamide inhibitors of beta amyloid production” (Wyeth, priority 2000, dated 2005).
Several values for one entry are separate records, joined by “and”; a condition that tells them apart may be missing. Equal values may be shown once. Read-outs that look alike come from different tables or passages of the source.

System: amyloid precursor protein (APP) proteolysis
Assay: Repressor Release Assay (RRA)
Assay type: cell-based
Description: The beta amyloid inhibitory activity of many of the compounds of the present invention has been determined using the Repressor Release Assay (RRA). See, Table 23 below. A compound is considered active in RRA if it leads to at least a 1.5 fold increase in luciferase activity at 20 μM and is non-toxic.
The compounds generated as described in Examples 1 through 220 were tested in the RRA in accordance with published techniques [Shuey, D. J., Sheiffele, P., Jones, D., Cockett, M. I., and Quinet, E. M. (1999), “Repressor release: a useful tool for monitoring amyloid precursor protein (APP) proteolysis in mammalian cells”, Society for Neuroscience Abstracts, Vol. 25, 29th Annual Meeting of Society for Neuroscience, Miami Beach, Fla., Oct. 23-28, 1999]. Briefly, this assay is performed as follows.
CHO-K1 cells are cultured in whole DMEM media (DMEM—High Glucose with 10% fetal bovine serum, 1% Non-essential Amino Acids, and 1% Penicillin-Streptomycin) at 37° C. with 5% CO2. Two million cells are plated into 10-cm dishes 24 hrs prior to transfection.
Transient transfections are completed as recommended by Gibco BRL using their Lipofectamine Plus system. First, 6 μg of pRSVO-luc and 6 μg of APP-lacI construct DNA are added to 460 μL Opti-Mem transfection media and incubated with 30 μL Plus reagent for 15 minutes. Then, a lipid mixture of 40 μL Lipofectamine reagent and 460 μL Opti-Mem transfection media is incubated with the DNA-Plus reagent mixture for 15 minutes. During the DNA-lipid incubation, the CHO-K1 cells are washed once and covered in 5.0 mL DMEM media without Penicillin-Streptomycin. The DNA-lipid preparation is then layered onto these cells and incubated at 37° C. overnight.
One and one half million transfected cells per well (100 μL total volume) are plated into sterile, opaque Packard 96-well Cultur-Plates in clear DMEM whole media (DMEM—without phenol red) and incubated at 37° C. with 5% CO2 for 3-5 hours.
Compounds are diluted using two different protocols; one protocol is used for compounds supplied neat (weighed powder in vial) and the other protocol is used for compounds supplied in solution (20 mM in DMSO in 96-well plates). For both protocols, 25 mM Hepes and 25 mM Hepes/1% DMSO are prepared fresh to be used as diluent. The Hepes/DMSO is used as the diluent control on all experimental plates.
The following table depicts the steps for compound dilution (please note that the last step is the addition of compound to cells/media in tissue culture plate):
Because some compounds arrive in 96-well format at 20 mM, the following represents the protocol for their dilution (note that an average molecular weight of these compounds was used to calculate these dilutions and as above, the last step is the addition of compound to cells/media in tissue culture plate):
Once compounds are diluted, they are applied in duplicate on cells in tissue culture plates (prepared above). Cells are incubated with compound at 37° C. with 5% CO2 for an additional 36-48 hours.
Luciferase assays (LucLite reagent, Packard) are performed and are read on a Packard TopCount instrument. Media is removed from each 96-well plate and replaced with 100 μL PBS per well (with Mg^2+ and Ca^2+). An equal volume (100 μL) of the LucLite lysis/substrate buffer is added to each well and the plates are sealed and mixed in the dark on a rotary shaker for 15-30 minutes at room temperature. Luciferase readings are then taken on the TopCount instrument. Measurements are expressed as relative light units (RLU) and are calculated and analyzed in MS Excel as follows.
A compound is considered active in RRA if it leads to at least a 1.5 fold increase in luciferase activity at 20 μM and is non-toxic, as determined by loss of signal (≦0.75 fold increase). Fold increase is the amount of luciferase activity (measured in relative light units) over diluent control. SEM represents the standard error of the mean for fold increase (not shown).

[1] = Conc 10 μg/mL, luciferase activity over diluent control, read-out: APPI Fold Increase
[2] = Conc 20 μg/mL, luciferase activity over diluent control, read-out: APPI Fold Increase
[3] = Conc 1 μg/mL, luciferase activity over diluent control
[4] = Conc 3 μg/mL, luciferase activity over diluent control
[5] = Conc 10 μg/mL, luciferase activity over diluent control
[6] = Conc 20 μg/mL, luciferase activity over diluent control
[7] = Conc 3 μg/mL, luciferase activity over diluent control, read-out: APPI Fold Increase

CC[C@H](C)[C@H](NS(=O)(=O)c1ccc(Cl)s1)C(O)CCC1OCCCO1 (stereo partly drawn) [Example 136, 5-chloro-N-{(S)-4-(1,3-dioxan-2-yl)-2-hydroxy-1-[(S)-1-methylpropyl]butyl}thiophene-2-sulfonamide]
fold induction at 10 µg/mL [1]: 2.13

CCC(NCc1ccccc1)[C@@H](CO)NS(=O)(=O)c1ccc(Cl)s1 (stereo partly drawn) [Example 85, N-[(1S)-2-(benzylamino)-1-(hydroxymethyl)butyl]-5-chloro-2-thiophenesulfonamide]
fold induction at 20 µg/mL [2]: 8.9

CCC[C@H](CC)[C@@H](CO)NS(=O)(=O)c1ccc(Cl)s1 [Example 34, 5-chloro-N-[(1S,2S)-2-ethyl-1-(hydroxymethyl)pentyl]thiophene-2-sulfonamide]
fold induction at 20 µg/mL [2]: 5.9

CC(C)CC(CO)NS(=O)(=O)c1ccc(Br)s1 (stereo not shown) [Example 105]
APPI Fold Increase [3]: 1.57 fold | APPI Fold Increase [4]: 2.23 fold | APPI Fold Increase [5]: 3.93 fold | APPI Fold Increase [6]: 2.4 fold and 1.5 fold

CC(C)C[C@@H](C(C)C)[C@@H](CO)NS(=O)(=O)c1ccc(Br)s1 [Example 75, 5-bromo-N-[(1S,2S)-1-(hydroxymethyl)-2-isopropyl-4-methylpentyl]thiophene-2-sulfonamide]
fold induction at 20 µg/mL [2]: 4.7

CCC[C@H](O)[C@@H](NS(=O)(=O)c1ccc(Br)s1)[C@@H](C)CC [Example 192, 5-bromo-N-{(S,S)-2-hydroxy-1-[(S)-1-methylpropyl]pentyl}thiophene-2-sulfonamide]
APPI Fold Increase [6]: 2.2 fold and 1.9 fold and 1.7 fold

CC[C@H](C)[C@@H](CO)NS(=O)(=O)c1ccc(F)s1 [Example 208, 5-Fluoro-N-[(1S,2S)-1-(hydroxymethyl)-2-methylbutyl]-2-thiophenesulfonamide]
fold induction at 20 µg/mL [2]: 16.5

CC(C)C[C@@H](c1ccco1)[C@@H](CO)NS(=O)(=O)c1ccc(Cl)s1 [Example 50, 5-chloro-N-[(1S,2R)-2-(2-furyl)-1-(hydroxymethyl)-4-methylpentyl]thiophene-2-sulfonamide]
fold induction at 20 µg/mL [2]: 7.7

O=S(=O)(N[C@H](CO)C1CCCCC1)c1ccc(Cl)s1 [Example 12, 5-Chloro-N-[(1S)-1-cyclohexyl-2-hydroxyethyl]thiophene-2-sulfonamide]
fold induction at 1 µg/mL (Conc 1 μg/mL, luciferase activity over diluent control, read-out: APPI Fold Increase): 2.58 | fold induction at 3 µg/mL [7]: 3.07 | fold induction at 10 µg/mL [1]: 4.2 | fold induction at 20 µg/mL [2]: 4.3

CCCCCC[C@@H](CC)[C@@H](CO)NS(=O)(=O)c1ccc(Br)s1 [Example 78A, 5-bromo-N-[(1S,2R)-2-ethyl-1-(hydroxymethyl)octyl]thiophene-2-sulfonamide]
fold induction at 20 µg/mL [2]: 5.8

CC[C@H](C)[C@H](NS(=O)(=O)c1ccc(Br)s1)C(O)(CC)CC [Example 173, 5-bromo-N-{(S)-2-ethyl-2-hydroxy-1-[(S)-1-methylpropyl]butyl}thiophene-2-sulfonamide]
fold induction at 10 µg/mL [1]: 1.5

CCCCCC[C@@H](C)[C@@H](CO)NS(=O)(=O)c1ccc(Cl)s1 [Example 29, 5-chloro-N-[(1S,2R)-1-(hydroxymethyl)-2-methyloctyl]thiophene-2-sulfonamide]
fold induction at 20 µg/mL [2]: 2.6

5-bromo-N-{(S,R)-2-hydroxy-1-[(S)-1-methylpropyl]pent-4-enyl}thiophene-2-sulfonamide [Example 195]
APPI Fold Increase [6]: 4.2 fold and 6.7 fold

CC(C)(C)OC(=O)N1CCC([C@@H](CO)NS(=O)(=O)c2ccc(Cl)s2)CC1 [Example 209, 4-[1-(5-Chloro-thiophene-2-sulfonylamino)-2-hydroxy-ethyl]-piperidine-1-carboxylic acid tert-butyl ester]
fold induction at 20 µg/mL [2]: 2.1

CC[C@H](C)[C@H](NS(=O)(=O)c1ccc(Cl)s1)C(C)O (stereo partly drawn) [Example 119, 5-Chloro-N-[(S,S)-1-(1-hydroxyethyl)-2-methylbutyl]thiophene-2-sulfonamide]
fold induction at 0.3 µg/mL (Conc 0.3 μg/mL, luciferase activity over diluent control, read-out: APPI Fold Increase): 1.54 | fold induction at 3 µg/mL [7]: 2.49 | fold induction at 10 µg/mL [1]: 4.1

CC[C@H](C)[C@H](NS(=O)(=O)c1cccs1)C(O)c1ccc(OC)cc1 (stereo partly drawn) [Example 149, N-{(S,S)-1-[hydroxy(4-methoxyphenyl)methyl]-2-methylbutyl}thiophene-2-sulfonamide]
fold induction at 10 µg/mL [1]: 1.62

CC(C)(CO)NS(=O)(=O)c1ccc(Cl)s1 [Example 92, 5-chloro-N-(2-hydroxy-1,1-dimethylethyl)thiophene-2-sulfonamide]
fold induction at 20 µg/mL [2]: 1.5

CC[C@H](C)[C@H](NS(=O)(=O)c1cccs1)C(O)C1CCCC1 (stereo partly drawn) [Example 140, N-{(S,S)-1-[cyclopentyl(hydroxy)methyl]-2-methylbutyl}thiophene-2-sulfonamide]
fold induction at 10 µg/mL [1]: 2.57

CC[C@H](C)[C@@H](CO)NS(=O)(=O)c1cc(Cl)sc1Cl [Example 5]
APPI Fold Increase (Conc 0.3 μg/mL, luciferase activity over diluent control): 0.9 fold | APPI Fold Increase [3]: 0.9 fold | APPI Fold Increase [4]: 1.1 fold | APPI Fold Increase [5]: 1.1 fold

CC(C)C[C@@H](c1ccco1)[C@@H](CO)NS(=O)(=O)c1ccc(Br)s1 [Example 72, 5-bromo-N-[(1S,2R)-2-(2-furyl)-1-(hydroxymethyl)-4-methylpentyl]thiophene-2-sulfonamide]
fold induction at 20 µg/mL [2]: 6.4

CCC[C@H](c1ccccc1)[C@@H](CO)NS(=O)(=O)c1ccc(Cl)s1 [Example 38, 5-chloro-N-[(1S,2R)-1-(hydroxymethyl)-2-phenylpentyl]thiophene-2-sulfonamide]
fold induction at 20 µg/mL [2]: 4.1

CCCCCC[C@@H](CCCCC)[C@@H](CO)NS(=O)(=O)c1ccc(Cl)s1 [Example 44, 5-chloro-N-[(1S,2R)-1-(hydroxymethyl)-2-pentyloctyl]thiophene-2-sulfonamide]
fold induction at 20 µg/mL [2]: 1.6

C=CCC(O)C(NS(=O)(=O)c1ccc(Cl)s1)C(C)CC (mixture of isomers) [Example 128]
APPI Fold Increase [3]: 1.52 fold | APPI Fold Increase [4]: 2.48 fold | APPI Fold Increase [5]: 5.62 fold and 3.86 fold | APPI Fold Increase [6]: 5.9 fold

CC[C@H](C)[C@@H](CO)NS(=O)(=O)c1ccc(I)s1 [Example 207, N-[(1S,2S)-1-(Hydroxymethyl)-2-methylbutyl]-5-iodo-2-thiophenesulfonamide]
fold induction at 20 µg/mL [2]: 5.6

O=S(=O)(N[C@H](CO)CC1CCCCC1)c1ccc(Cl)s1 [Example 95]
APPI Fold Increase [5]: 1.9 fold

CCCCC[C@H](c1ccc(OC)cc1)[C@@H](CO)NS(=O)(=O)c1ccc(Br)s1 [Example 64, 5-bromo-N-[(1S,2R)-1-(hydroxymethyl)-2-(4-methoxyphenyl)heptyl]thiophene-2-sulfonamide]
fold induction at 20 µg/mL [2]: 2.9

CCCCC[C@H](CC(C)C)[C@@H](CO)NS(=O)(=O)c1ccc(Br)s1 [Example 63, 5-bromo-N-[(1S,2R)-1-(hydroxymethyl)-2-isobutylheptyl]thiophene-2-sulfonamide]
fold induction at 20 µg/mL [2]: 3.3

CCCC(C)C(CO)NS(=O)(=O)c1ccc(Cl)s1 (stereo not shown) [Example 20, 5-chloro-N-[1-(hydroxymethyl)-2-methylpentyl]thiophene-2-sulfonamide]
fold induction at 20 µg/mL (read-out: APPI Fold Increase): 5

CC(NCc1ccccc1)[C@@H](CO)NS(=O)(=O)c1ccc(Cl)s1 (stereo partly drawn) [Example 84, N-[(1S)-2-(benzylamino)-1-(hydroxymethyl)propyl]-5-chloro-2-thiophenesulfonamide]
fold induction at 20 µg/mL [2]: 3.8
